Key:
[1] = tested on: patient with intractable post-herpetic trigeminal neuralgia; test: Ketamine infusion with clonidine and MgSO4 in a patient with post-herpetic trigeminal neuralgia; type: in vivo, human
Source text: A person had suffered for about 1.5 years from intractable post-herpetic trigeminal neuralgia (commonly known as shingles).

[2] = tested on: patients with CRPS-1 (RSD); test: Sustained ketamine infusion (with clonidine/magnesium) in patients with CRPS-1 (RSD) chronic neuropathic pain
Source text: One of the coinventors herein (Correll, a physician) was involved in those tests, in Australia, using ketamine “mono-therapy” (i.e., without also administering a safener drug, such as clonidine).
In response, the anesthesiologist began to administer clonidine, a standard and conventional treatment for controlling high blood pressure. […] The anesthesiologist then began researching the scientific, medical, and patent literature on the subject, and soon discovered prior work done by the third inventor (Olney, a neurology researcher who specializes in animal models) on the subject of safener drugs that can reduce or prevent the toxic side effects of NMDA blocker drugs such as ketamine.
A person had suffered for roughly 9 years from intractable chronic pain, diagnosed as CRPS-1 and/or RSD, in their right leg and foot. This pain apparently was related to circulatory problems in their right leg. […] The contents of that article are incorporated herein by reference.
They were treated with […] of MgSO4 (infused in 5% dextrose in water, or D5W) and 0.1 mg clonidine (oral tablet) prior to ketamine. […] A second magnesium infusion was performed at 24 hr.

depressed patients = details: single one-time dosage; cited from earlier work
[3] = tested on: patients with compulsive eating disorders (mainly anorexic); details: 2 to 9 infusions, 10-hour infusion period, 20 mg per hour; cited from earlier work

For `O=S(=O)([O-])[O-].[Mg+2]` [MgSO4, magnesium sulfate], the “effect of magnesium coadministered along with ketamine on pain” value ([1]; Example 3, 2 g MgSO4 prior to and 2 g later in ketamine infusion) was “synergistic pain-reducing effect”.

With `Clc1cccc(Cl)c1N=C1NCCN1` [clonidine] the “effect of adding clonidine to ketamine infusion on pain” value ([2]; patient in ketamine mono-therapy test, clonidine given for rising blood pressure) was “substantial improvement in their pain reduction”.

With `CNC1(c2ccccc2Cl)CCCCC1=O` (stereo not drawn) [ketamine] the “time patient remained pain-free after ketamine treatment” value ([2]; Example 1, person, 9-year CRPS-1/RSD in right leg and foot) was “roughly 18 months”, the “pain status at last contact” value ([2]; Example 2, about 12 months after treatment) was “still pain-free” and the “time until CNS side effects (slurring of speech) resolved” value ([2]; Example 2, ketamine infusion increased to 20 mg/hr) was at most 24 h. The “time of ketamine infusion until essentially complete relief from pain” value ([2]; Example 2, person, ketamine 10-20 mg/hr i.v. with clonidine 0.1 mg every 12 hours and MgSO4) was 2 to 3 days, the “pain status at last contact” value ([1]; Example 3, about 12 months after treatment, 48 hours ketamine infusion, clonidine started during first day, 2 x 2 g MgSO4) was “still largely abated” and the effect on depression (depressed patients) was “transient relief of depression”. The “patients with prolonged remission of compulsive thoughts about food, diet, and weight” value [3] was “Nine of the 15”.

— US20050222270A1, “Prolonged administration of NMDA antagonist drug and safener drug to create improved stable neural homeostasis” (priority 2004, published 2005)
